Test results reported in US10561681B2, “Antimetastatic 2H-selenopheno[3,2-h]chromenes, synthesis thereof, and methods of using same agents” (Latvian Institute of Organic Synthesis, priority 2016, dated 2020).
Marks after values point to notes of the source that are not given here.

How the values were obtained:
[1] = Acute p.o. toxicity, Up-and-Down Procedure (OECD 425); conditions: mouse, in vivo, po; p.o. single dose, 6 weeks old male ICR mice
Description: Acute p.o. toxicity (LD50) was estimated by the Up-and-Down Procedure according to the OECD Test Guideline 425 [OECD (2001) Guideline for testing of chemicals OECD 425, acute oral toxicity—Up-and-Down Procedure, Paris, p. 1-26]. Animals were observed daily for clinical signs or mortality over a period of two weeks following the treatment. Compounds were dissolved in DMSO and then in PBS (pH 7.4; DMSO final concentration <1%). The test substance was administered in a single dose p.o. to mice. […]
Acute toxicity in vivo has been determined for I-10 and I-11 on 6 weeks old male ICR mice.

[2] = system: mouse sarcoma CCRF-S180 II (CCL-8); assay: Mouse non-metastatic cancer model, sarcoma CCL-8 s.c. in ICR mice; format: in vivo; conditions: s.c. Day 1, 2, 3, 4, 7, 8, 9, 10, 11; dose 5 mg/kg, total dose 45 mg/kg
Description: Six-week-old female ICR and BALB/c mice were purchased from the University of Tartu Laboratory Animal Centre (Estonia). The mice were housed five to a cage, and under standard conditions (21-23° C., 12 h light: dark cycle), fed ad libitum (R3 diet, Lactamin AB, Kimstad, Sweden) and observed daily. The experimental procedures involving experimental animals were carried out in accordance with the guidelines of the European Community, local laws and policies, and were approved by the Latvian Animal Protection Ethical Committee, the Food and Veterinary Service, Riga, Latvia.
In vivo studies were performed utilizing the mouse sarcoma CCRF-S180 II (CCL-8) and Lewis lung carcinoma (LLC) cell line. All cell lines were purchased from ATCC. The cells were grown in Dulbecco's modified Eagle's medium (Sigma) supplemented with 10% fetal calf serum (Sigma).
ICR mice were subcutaneously inoculated in the back with 5×10^6 CCL-8 cells and BALB/c mice were inoculated with 1×10^6 LLC (Lewis Lung Carcinoma) cells, which were suspended in 0.1 mL of PBS on day zero of the study. The compounds dissolved in DMSO and then in 0.1 mL water (DMSO final concentration 1%) were injected s.c. Mice in the untreated group were similarly given doses of 0.1 mL of water with DMSO. Tumor volume (tumor volume V=[…], a is maximal and b the minimal tumor diameter) was recorded twice per week. The mice were examined every other day for diseases including appearance, weight and behavior. The mice were sacrificed at day 16 of the experiment by decapitation after ketamine/xylazine anesthesia.

[3] = system: MES-SA (human uterus sarcoma); assay: In vitro cytotoxicity, MTT test; format: cell-based; conditions: MTT, 72 h, read-out: Cytotoxicity IC50, MES-SA
How it was run: (§1)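 Seeding density varied by line (about 2-9·10^4 cells/mL). Following three days of treatment, an MTT step of 3 hr at 37° C. preceded DMSO addition and photometric reading at 540 nm.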

[4] = system: HepG2 (human hepatocellular carcinoma); assay: In vitro cytotoxicity, MTT test; format: cell-based; conditions: HepG2, MTT, 72 h, read-out: Cytotoxicity IC50, HepG2
How it was run: as §1

[5] = system: A549 (human lung carcinoma); assay: In vitro cytotoxicity, MTT test; format: cell-based; conditions: Homo sapiens, A549, 72 h, MTT, 72 h; read-out: Cytotoxicity IC50, A549
How it was run: as §1

[6] = system: SH-SY5Y (human neuroblastoma); assay: In vitro cytotoxicity, MTT test; format: cell-based; conditions: Homo sapiens, SH-SY5Y, 72 h, MTT, read-out: Cytotoxicity IC50, SHSY5Y
How it was run: as §1

MG-22A (mouse hepatoma) = assay: In vitro cytotoxicity, MTT test; format: cell-based; conditions: MTT, 72 h, read-out: Cytotoxicity IC50, MG-22A
How it was run: as §1

[7] = system: MDA-MB-435s (human melanoma); assay: In vitro cytotoxicity, MTT test; format: cell-based; conditions: MTT, 72 h, read-out: Cytotoxicity IC50, MDA-MB-435s
How it was run: as §1

[8] = system: HT-1080 (human fibrosarcoma); assay: In vitro cytotoxicity, MTT test; format: cell-based; conditions: HT-1080, MTT, 72 h, read-out: Cytotoxicity IC50, HT-1080
How it was run: as §1

[9] = system: MCF-7 (human breast adenocarcinoma, estrogen-positive); assay: In vitro cytotoxicity, MTT test; format: cell-based; conditions: MCF7, MTT, 72 h, read-out: Cytotoxicity IC50, MCF-7
How it was run: as §1

CCL-8 (mouse sarcoma) = assay: In vitro cytotoxicity, MTT test; format: cell-based; conditions: MTT, 72 h, read-out: Cytotoxicity IC50, CCL-8
How it was run: as §1

malignant tumor cells = assay: In vitro cytotoxicity on monolayer tumor cell lines (panel, summary in words); format: cell-based; conditions: summary of Table 1
Description: Anticancer activity of selenopheno[h]chromenes was tested in vitro using cytotoxicity assay. Thus, monolayer tumor cell lines MDA-MB-435s (human melanoma), MCF-7 (human breast adenocarcinoma, estrogen-positive), MES-SA (human uterus sarcoma), HT-1080 (human fibrosarcoma), A549 (human lung carcinoma), SH-SY5Y (human neuroblastoma), CCL-8 (mouse sarcoma), MG-22A (mouse hepatoma), and HepG2 (human hepatocellular carcinoma) were cultured in standard medium DMEM (Dulbecco's modified Eagle's medium) (“Sigma”) supplemented with 10% fetal bovine serum (“Sigma”). About 2-9·10^4 cells/mL (depending on line nature) were placed in 96-well plates immediately after compounds were added to the wells. Untreated cells were used as a control. The plates were incubated for 72 h, 37° C., 5% CO2. The number of surviving cells was determined using 3-(4,5-dimethylthiazol-2-yl)-2,5-diphenyltetrazolinium bromide (MTT). MTT-test: after incubating culture medium was removed and 200 μL fresh medium with 10 mM HEPES was added in each well of the plate, than 20 μL MTT (2 mg/mL in HBSS) was added. After incubation (3 hr, 37° C., 5% CO2), the medium with MTT was removed and 200 μL DMSO were added at once to each sample. The samples were tested at 540 nm on Anthos HT II photometer.

Structure (SMILES) | LD50 at 2 weeks [1] | Anticancer activity in vivo (inhibition, %), CCL-8 tumor volume [2] | IC50 [3] | IC50 [4] | IC50 [5] | IC50 [6] | IC50 (MG-22A (mouse hepatoma)) | IC50 [7] | IC50 [8] | IC50 [9] | IC50 (CCL-8 (mouse sarcoma)) | Cytotoxicity on cancer cell lines (malignant tumor cells)
COC(=O)c1cc2ccc3c(Br)c(CN4CCN(C)CC4)[se]c3c2oc1=O [Compound I-10, Methyl 7-bromo-8-((4-methylpiperazin-1-yl)methyl)-2-oxo-2H-selenopheno[3,2-h]chromene-3-carboxylate] | 891 mg/kg | 42** % | > 187 µM | 187 ± 10 µM | 187 ± 10 µM | > 117 µM | 64 ± 5 µM | > 187 µM | 170 ± 9 µM | 150 ± 9 µM | 94 ± 7 µM | low toxic to the cancer cell lines
O=C(O)c1cc2ccc3c(Br)c(C4(O)CCCCC4)[se]c3c2oc1=O [Compound I-11, 7-Bromo-8-(1-hydroxycyclohexyl)-2-oxo-2H-selenopheno[3,2-h]chromene-3-carboxylic acid] | > 2000 mg/kg | 58* % | 206 ± 10 µM | > 213 µM | > 213 µM | > 117 µM | > 122 µM | 208 ± 13 µM | 77 ± 5 µM | 213 ± 6 µM | 149 ± 9 µM | complete loss of cytotoxicity
